We go through two molecules from US20240294529A1, “6H-IMIDAZO[1,2-A]PYRROLO[2,3-E]PYRIDINE DERIVATIVES FOR USE IN THERAPY” (SANOFI, priority 2021, published 2024).

The structures appear in SMILES notation.

One data set deals with T1, Nurr1 (Mus musculus, UniProt Q06219).
T1 construct: N2A cells obtained from ATCC were stably transfected with NBRE8x (50-AAGGTCA-30) in tandem coupled with luciferase reporter gene; host or cells: N2A neuroblastoma cells
Briefly: Activity on neuroblastomas cell lines - Nurr1 modulation (N2A cells, NBRE8x luciferase reporter). The note with it: N2A cells stably transfected with NBRE8x-luciferase, 24 hours with compound; read-out: EC50 activity, Nurr1 modulation in N2A neuroblastoma cells. The data set is classed as cell-based. Here is the method: N2A cells obtained from ATCC were stably transfected with NBRE8x (50-AAGGTCA-30) in tandem coupled with luciferase reporter gene. Each NBRE sequence was separated with 5 nucleotides. N2A were grown in 75 cm^2 flask in DMEM containing 10% calf serum, 4.5 g/L glucose and 0.4 mg/ml geneticin. After one week in culture cells were harvested by trypsinization (0.25%, 30 minutes) then plated onto 96 well dishes at the density of 60,000 cell per well in 75 μl of DMEM without phenol red containing 4.5 g/l glucose, 10% lipid free serum from Hyclone. After 24 hours compounds were added (25 μl/well) at different concentration for further 24 hours. Measurement is performed by adding 100 μl of Steadylite per well for 30 minutes and plates are read using microplate […] reader.
On the technique in general: In a reporter assay the amount or activity of a reporter protein is the signal.

The next data set deals with T2, hNur77 (Homo sapiens, UniProt P22736).
T2 construct: The pFR-Luc (Gal4 UAS luciferase) reporter sits in the same cells, and expression is induced by doxycycline
Nature of the data set: Activity on HEK-Nur77 modulation (Gal4-DBD luciferase reporter in stable HEK293 cells). In kind it is cell-based. The note with it: 24 hours with compound. Here is the method: Stable HEK293 cells expressing Gal4-DBD-FL-NOT, -hNur77, -hNOR1 and Pfr-Luc were obtained by limit dilution. HEK cells were grown in 75 cm^2 flask in DMEM high glucose 30-2002™ containing 10% calf serum, hygromycin at a content of 250 μg/ml, doxycyclin at a content of 2 μg/ml (to induce expression) and 0.4 mg/ml of penicillin. After one week in culture, cells were harvested by trypsinization then plated onto 96 well dishes at the density of 20,000 cell per well in 75 μl of culture medium. After 24 hours compounds were added (25 μl per well) at different concentration for further 24 hours. The medium was removed and measurement was performed by adding 50 μl of Steadyglo (Promega, E2510) with 50 μl PBS per well for 15 minutes and plates were read using microplate luminescent reader.

As usually defined, the melting point is the temperature of the solid-liquid transition. One may read the EC50 as the concentration that produces a half-maximal response. As a reminder, the IC50 is the concentration needed to halve the response being measured.

T2 sequence (P22736 360-598 limits assumed): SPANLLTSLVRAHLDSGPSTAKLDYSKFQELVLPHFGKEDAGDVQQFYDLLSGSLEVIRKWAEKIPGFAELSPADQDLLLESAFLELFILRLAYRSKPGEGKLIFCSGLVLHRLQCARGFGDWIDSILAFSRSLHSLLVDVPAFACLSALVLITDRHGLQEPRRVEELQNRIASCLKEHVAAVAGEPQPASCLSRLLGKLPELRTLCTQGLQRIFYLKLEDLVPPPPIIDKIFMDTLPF
T1 sequence (Q06219 whole entry): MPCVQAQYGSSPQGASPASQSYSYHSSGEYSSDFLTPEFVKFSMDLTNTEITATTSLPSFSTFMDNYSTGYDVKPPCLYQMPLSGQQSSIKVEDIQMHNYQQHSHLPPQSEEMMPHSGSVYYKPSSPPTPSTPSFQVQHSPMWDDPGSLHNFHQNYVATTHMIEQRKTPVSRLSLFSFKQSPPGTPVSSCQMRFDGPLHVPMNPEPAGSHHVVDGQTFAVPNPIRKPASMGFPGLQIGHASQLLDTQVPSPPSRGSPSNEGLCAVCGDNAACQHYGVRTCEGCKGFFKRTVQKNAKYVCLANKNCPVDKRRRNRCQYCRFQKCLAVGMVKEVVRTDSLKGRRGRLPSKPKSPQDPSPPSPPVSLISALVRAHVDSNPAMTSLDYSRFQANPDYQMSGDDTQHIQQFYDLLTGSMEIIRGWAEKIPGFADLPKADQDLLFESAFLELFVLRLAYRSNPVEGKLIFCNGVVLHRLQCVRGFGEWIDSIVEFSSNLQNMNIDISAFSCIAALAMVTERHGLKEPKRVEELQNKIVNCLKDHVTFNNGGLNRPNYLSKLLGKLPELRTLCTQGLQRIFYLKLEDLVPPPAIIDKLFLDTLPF

`Clc1ccc(-c2nc3ccc4[nH]ccc4n3c2Cl)cc1` [compound of formula (1), 1-Chloro-2-(4-chlorophenyl)-6H-imidazo[1,2-a]pyrrolo[2,3-e]pyridine] gave a melting point of 252 °C. Moreover, at Nurr1, the EC50 amounted to 0.2 nM. In addition, the IC50 on hNur77 was found to be 10000 nM.
For `Clc1ccc(-c2cn3c(ccc4[nH]ccc43)n2)cc1` [compound of formula (2), 2-(4-Chlorophenyl)-6H-imidazo[1,2-a]pyrrolo[2,3-e]pyridine], the EC50 at Nurr1 came to 0.03 nM. Besides, the IC50 at hNur77 came out at 300 nM.
